Source: patent publication US7745465B2, “Method of enhancing cellular production of molecular chaperone, hydroxylamine derivatives useful for enhancing the chaperone production and the preparation thereof” (CytRx Corporation, priority 1995, dated 2010)

Columns and labels:
HSP72 [1] = assay: Heat stress induced HSP72 production in 3T3 cells; format: cell-based, mouse; details: 10^−5 M
Experimental: From the applied cells the 3T3 and L-929 mouse fibroblasts were cultured in MEM medium and grew in monolayer, the U-937 human leukemia cells were maintained in RPMI-1640 medium, in suspension culture, while the HeLa human epithelial cells were cultured in DMEM medium and in monolayer form. Cell cultures were maintained as described in example 6.2 (a) with the difference that cells were cultured in the above mentioned culture mediums.
Experiments were carried out applying stress before and after the drug treatment. Stress was provoked by heat, by chemical agent, HgCl2 treatment. The test compounds were applied in the treatments at the 10^−5 M concentration.
The experiments on 3T3 cell applying heat stress were performed as described in the 6.2. (c) point of example 6, with the difference that stress was induced by a 30 min. exposure at 43° C. temperature and treatment with the test compounds was performed 15 min. before or 100 min. after the heat stress.
Immunodetection was carried out using the HSP72 specific SPA 810 (StressGene) primary and the horse-radish peroxidase conjugated A9044 (Sigma) secondary antibodies. Densitometric evaluation was performed by a LKB Ultrascan XL densitometer.

Hsp72 [2] = assay: Heat stress induced hsp72 expression in rat testicular explant; format: cell-based; details: 10^−5 M, 15 min. before 43° C. 30 min.
Experimental: Testis of CFY rats weighing of 200 g were removed in sterile conditions and the released testicular tubuli were suspended in 10% fetal bovine serum containing MEM culture medium in that way that five ml suspension contained 50-100 mg tissue. The explants were incubated in 5% CO2 containing humidified air at 37° C. for one hour, then the cultures were treated with 10^−5 M concentration of the tested compounds. After a further incubation for 15 min. at 37° C., explants were exposed to heat shock at 43° C. for 30 min. The amount of the induced hsp72 was measured after a further 6 hours incubation at 37° C.

Male Sprague-Dawley rats = assay: Protection against cardiac ischaemia: survival after 5 minutes coronary occlusion and reperfusion; format: in vivo, rat; details: i.v. 1 mg/kgbw, 5 min. before the occlusion; non-treated control 10
Experimental: Male Sprague-Dawley rats (380-450 g b.w.) were anaesthetized with sodiumpentobarbital (Nembutal 60 mg/kg body weight, i.p.) and artificially ventilated with room air (2 ml/100 g; 54 stroke/minutes) via tracheotomy. The right carotid artery was catheterized and connected to a pressure transducer (BPR-01, Stoelting) for the measurement of systemic arterial blood pressure (BP) by means of a preamplifier (Hg-02, Experimetria). Hydroxylamine derivatives disclosed in Example 5 were administered via the venous cannule to jugular vein (i.v.) and orally (p.o.). Heart rate (HR) was measured by a cardiotachometer (HR-01, Experimetria). The electrocardiogram (ECG standard lead II) was recorded on a devices recorder (MR-12, Medicor) by means of subcutaneous steel needles electrodes. The chest was opened by a left thoracotomy and the heart was exteriorized by a gentle pressure on the right side of the rib cage. A 4-0 silk suture was quickly placed under the main left coronary artery as described by Selye et al. (1960). The heart was carefully replaced in the chest and the animal left to recover. Rectal temperature was monitored and kept constant at 37 C. The experimental protocol was initiated with a 15 minute stabilization period during which the observation of a sustained blood pressure less than 70 mmHg and or the occurrence of anhythmia led to exclusion. Myocardial ischemia was induced with coronary occlusion for 5 minutes and reperfusion allowed for 10 minutes.
During the entire experiment BP, HR and ECG were continuously registered on a multiscriptor (R61-6CH, Medicor). Hydroxylamine derivatives, the tautomeric forms of which are represented by structures (I) and (II), were administered 5 to 60 minutes before the occlusion after i.v. and p.o. treatment, respectively. […]
The mean duration of ventricular tachycardia (VT) and/or ventricular fibrillation (VF) during the first 3 minutes of reperfusion was analyzed by one-way analysis of variance. The incidence of VF was analyzed using a chi-square test. […] The haemodynamic variables were analyzed using Student's “t”-test. The critical level of significance was set at p<0.05. All results were expressed as a means±S.E.M. Drugs were administered i.v. in a dose of 1 mg/kgbw 5 min. before the occlusion.
The hydroxylamine derivatives that are found to be particularly advantageous for protecting an animal against ischemic/reperfusion injury are listed below. Survival (%) indicates the percent of animals survived the effects of 5 minutes coronary occlusion.

[3] = treatment 15 min. before 30 min. 43° C. heat stress
[4] = treatment 100 min. after 30 min. 43° C. heat stress

melting point | Compound | HSP72 level relative to the stress exposed control (HSP72 [1]; [3]) | Level of hsp72 relative to the stress exposed control (Hsp72 [2]) | further results
207 to 209 °C | COc1ccc(CC(=N)NOCCCN2CCCCC2)cc1OC.Cl.Cl |  |  | 
 | CC(C)(C)NC1CON=C(c2cccnc2)O1 (stereo not shown) [3-(3-piridyl)-5-t-butylamino-5,6-dihydro-6H-1,4,2-dioxazine] | + (21-50%) | 0 (0 indicates that the treatment altered by ±20% the stress induced hsp72 level in the cells) | 
 | Cl.O=[N+]([O-])c1ccccc1C(Cl)=NOCC(O)CN1CCCCC1 (stereo not shown) [Example 6, N-[2-hydroxy-3-(1-piperidinyl)propoxy]-2-nitro-benzenecarboximidoyl chloride monohydrochloride] | +++ (>100%) | + + | Survival (%) (Male Sprague-Dawley rats): 100%; HSP72 level relative to the stress exposed control (HSP72 [1]; [4]): 0 (0 indicates that the treatment altered by ±20% the stress induced hsp72 level in the cells)
 | Cl.O=[N+]([O-])c1cccc(C(Cl)=NOCC(O)CN2CCCCC2)c1 (stereo not shown) [Example 4, N-[2-hydroxy-3-(1-piperidinyl)propoxy]-3-nitro-benzenecarboximidoyl chloride monohydrochloride] |  | + (21-50%) | Survival (%) (Male Sprague-Dawley rats): 50%
 | CC(=O)Nc1ccc(C(N)=NOCC(O)CN2CCCCC2)cc1.Cl (stereo not shown) [Example 39] |  | 0 (0 indicates that the treatment altered by ±20% the stress induced hsp72 level in the cells) | Survival (%) (Male Sprague-Dawley rats): 60%
91 to 94 °C | Cl.N=C(NOCC(CN1CCCCC1)OC(=O)c1ccccc1Cl)c1cccnc1 (stereo not shown) |  |  | 
157 to 170 °C | Cl.Cl.N=C(NOCC(O)CN1CCCCC1)c1cccs1 (stereo not shown) |  |  | 
147 to 149.5 °C | Cl.OC(CNC1CCCCC1)CON=C(Cl)c1cccc(C(F)(F)F)c1 (stereo not shown) |  |  | 
200 to 208 °C | Cl.Cl.N=C(NOCC(O)CN1CCCCC1)c1ccccc1[N+](=O)[O-] (stereo not shown) |  |  | 
 | Cl.ClC(=NOCCCN1CCCCC1)c1cccs1 [N-[3-(1-piperidinyl)-propoxy]-tiophene-2-carboximidoyl-chloride-hydrochloride] |  | + + | 
 | O=C(O)/C=C\C(=O)O.O[C@@H](CON=C(Cl)c1cccnc1)CN1CCCCC1 [Example 77, /R/(+)-N-[2-hydroxyl-3-(1-piperidinyl)propoxy]-3-pyridinecarboximidoyl chloride (Z)-2-butenedioate (1:1)] | +++ (>100%) |  | Survival (%) (Male Sprague-Dawley rats): 67%
130 to 134 °C | Cl.OC(CONC(=NC1CCCCC1)c1cccnc1)CN1CCCCC1 (stereo not shown) |  |  | 
 | 5,6-dihydro-3-(4-chloro-phenyl)-5-[N-methyl-piperidinium-1-yl]-methyl-4H-1,2,4-oxadiazine iodide | ++ (51-100%) | + (21-50%) | 
 | C[n+]1cccc(C(Cl)=NOCC(O)C[N+]2(C)CCCCC2)c1.[I-].[I-] (stereo not shown) [Example 16, N′-[2-hydroxy-3-(1-methyl-1-piperidinium-1-yl)propoxy]-N-methyl-pyridinium-3-carboximidoyl chloride diiodide] | +++ (>100%) |  | Survival (%) (Male Sprague-Dawley rats): 67%; HSP72 level relative to the stress exposed control (HSP72 [1]; [4]): +++ (>100%)
 | CCCCCCCCCCCCCCCC(=O)OC(CONC(=N)c1cccnc1)CN1CCCCC1.Cl (stereo not shown) [Example 22, N-[2-palmitoyloxy-3-(1-piperidinyl)propoxy]-3-pyridinecarboximidamide monohydrochloride] | +++ (>100%) | 0 (0 indicates that the treatment altered by ±20% the stress induced hsp72 level in the cells) | Survival (%) (Male Sprague-Dawley rats): 100%; HSP72 level relative to the stress exposed control (HSP72 [1]; [4]): + (21-50%)
116 to 119 °C | Cl.N=C(NOCCCN1CCCCC1)c1cccc(C(F)(F)F)c1 |  |  | 

melting point | Compound | HSP72 level relative to the stress exposed control (HSP72 [1]; [3]) | Level of hsp72 relative to the stress exposed control (Hsp72 [2]) | further results
 | Cl.Cl.ClC(=NOCCCN1CCCCC1)c1cccnc1 [Example 78, N-(3-piperidino-1-propoxy)-3-pyridinecarboximidoyl chloride dihydrochloride] | +++ (>100%) | + + | Survival (%) (Male Sprague-Dawley rats): 100%
 | Cl.Cl.N=C(NOCC(O)CN1CCCCC1)c1nccc2ccccc12 (stereo not shown) [Example 46, N-[2-hydroxy-3-(1-piperidinyl)propoxy]-1-isoquinolinecarboximidoyl dihydrochloride] |  | + + + | 
184 to 189 °C | Cl.Cl.N=C(NOCC(O)CN1CCCCC1)c1ccc([N+](=O)[O-])cc1 (stereo not shown) |  |  | 
 | CN(OCCCN1CCCCC1)C(=O)c1ccccc1.Cl [N-methyl-N-[3-(1-piperidinyl)-propoxy]-benzamide hydrochloride] | + (21-50%) | + (21-50%) | 
 | CCCCCCNC(=O)NOCC(O)CN1CCCCC1 (stereo not shown) [Example 58, N-hexyl-N′-[2-hydroxy-3-(1-piperidinyl)propoxy]-urea] |  | 0 (0 indicates that the treatment altered by ±20% the stress induced hsp72 level in the cells) | HSP72 level relative to the stress exposed control (HSP72 [1]; [4]): +++ (>100%)
 | CCN(CC)CC1CON=C(c2cccnc2)O1.Cl (stereo not shown) [3-(3-piridyl)-5-diethylaminomethyl-5,6-dihydro-6H-1,4,2-dioxazine hydrochloride] | + (21-50%) | + + | 
180 to 182 °C | Cl.O=[N+]([O-])c1ccc(C(Cl)=NOCC(O)CN2CCCCC2)cc1 (stereo not shown) |  |  | 
158 to 162 °C | Cl.N=C(NOCCCN1CCCCC1)c1cccc([N+](=O)[O-])c1 |  |  | 
207 to 209 °C | Cl.Cl.N=C(NOCCCN1CCCCC1)c1ccccc1 |  |  | 
 | CC(=NOCC(O)CNC(C)(C)C)c1cccc(C(F)(F)F)c1.CC(=O)O (stereo not shown) [1-{[3-(t-butylamino)-2-hydroxy-propoxy]-imino}-1-(m-trifluoromethyl-phenyl)-ethane acetate] | +++ (>100%) | + (21-50%) | 
168 to 172 °C | Cl.OC(CON=C(Cl)c1nccc2ccccc12)CN1CCCCC1 (stereo not shown) |  |  | 
 | CC(C)(C)NCC(O)CON=C(Cl)c1cccc(C(F)(F)F)c1.Cl (stereo not shown) [Example 9, N-[3-[(1,1-Dimethylethyl)amino]-2-hydroxypropoxy]-3-trifluoromethylbenzene-carboximidoyl chloride monohydrochloride] |  | + (21-50%) | Survival (%) (Male Sprague-Dawley rats): 100%
 | CCCCCCNC(=O)NOCCCN1CCCCC1 [Example 61, N-hexyl-N′-[3-(1-piperidinyl)propoxy]-urea] | ++ (51-100%) | 0 (0 indicates that the treatment altered by ±20% the stress induced hsp72 level in the cells) | 
 | CCN(CC)CCCON=C(Cl)c1cccnc1.Cl [O-(3-diethylamino-propoxy)-3-pyridine-carboximidoyl-chloride hydrochloride] | +++ (>100%) | 0 (0 indicates that the treatment altered by ±20% the stress induced hsp72 level in the cells) | 
 | CCN(CC)C(=NOCC(O)CN1CCCCC1)c1cccnc1.Cl (stereo not shown) [Example 51] | +++ (>100%) |  | Survival (%) (Male Sprague-Dawley rats): 75%

Compound | melting point | HSP72 level relative to the stress exposed control (HSP72 [1]; [3]) | Level of hsp72 relative to the stress exposed control (Hsp72 [2]) | further results
N=C(NOCC(CN1CCCCC1)OC(=O)c1ccco1)c1cccnc1.O=C(O)/C=C\C(=O)O (stereo not shown) | 167 to 171.5 °C |  |  | 
